Test results from US11639332B2, “Methods and compositions of isoindoline-1,3-dione and isoindole prodrugs useful for treating cancer, ulcerative colitis and related inflammatory diseases” (AMGEN (EUROPE) GMBH, priority 2018, dated 2023).
Where “and” joins values, the source holds several entries; their conditions need not be identical. Equal values may be shown once.

Test system: Trinitrobenzenesulfonic Acid (TNBS) Rat Model of Colonic Inflammation
Assay: Trinitrobenzenesulfonic acid (TNBS) rat model of colonic inflammation, oral treatment Days 1-6, evaluation Day 7
Type: in vivo, Sprague-Dawley rats
Set-up: key to Average Colonic Score: sum of adhesions, strictures, ulcers and wall thickness scores
Conditions: for Average # Ulcers / Average Colon Length / Average Colon Weight / Average Colonic Score / Average Ratio (colon length/colon weight) / Average Ulcer Length / Average Wall Thickness / Average Adhesions / Average Colon Wall Thickness, score / Average Strictures / Average Ulcers, score / Average Rat Weight: group mean; for Average # Ulcers / Average Colon Length / Average Colon Weight / Average Colonic Score / Average Ratio (colon length/colon weight) / Average Ulcer Length / Average Wall Thickness / Average Adhesions / Average Colon Wall Thickness, score / Average Strictures / Average Ulcers, score / # Ulcers / Colon Length / Colon Weight / Ratio (colon length/colon weight) / Ulcer Length / Wall Thickness / Colon Wall Thickness, score / Ulcers, score / Strictures / Adhesions / Colonic Score: Day 7; for Average Adhesions / Average Colon Wall Thickness, score: score 0-2; for Average Strictures / Average Ulcers, score: score 0-3; for # Ulcers / Colon Length / Colon Weight / Ratio (colon length/colon weight) / Ulcer Length / Wall Thickness / Colon Wall Thickness, score / Ulcers, score / Strictures / Adhesions / Colonic Score / Rat Weight: individual rats; for Colon Wall Thickness, score: less than 1 mm=0, 1-3 mm=1, >3 mm=2; for Ulcers, score: none=0, linear ulceration <1 cm=1, two linear ulcers <1 cm=2, more sites or one large ulcer=3; for Strictures: score none=0, mild=1, moderate=2, severe, proximal dilatation=3; for Adhesions: score none=0, minimal=1, involving several bowel loops=2; for Colonic Score: sum of adhesions, strictures, ulcers and wall thickness scores
Description: In Vivo Efficacy of PDE4 Inhibitor Prodrug in the Trinitrobenzenesulfonic Acid (TNBS) Rat Model of Colonic Inflammation
2. 1.62 g of prodrug from Example 2 (WB301), lot 2 (MW 587.12) in a clear 20 mL glass vial (orange material) which was stored at 4-8° C.
38 Sprague-Dawley rats (Harlan Sprague-Dawley, Inc. male, PO #599229, R #3450, 200-220 g) were received, individually examined and housed in nine cages of four rats each and one cage containing two rats. No clinical signs of disease or distress were observed. The rats were placed in quarantine with daily inspections. The rats were ear notched (SOP 800) for identification purposes, weighed (RESULTS), and sorted into four treatment groups of eight rats each based upon average body weight. The rats were individually examined and found to be free of any clinical signs of disease or distress. No deaths were recorded during the quarantine period. The rats were released to routine maintenance.
A 16 mg/ml TNBS solution was prepared be adding 2.729 ml picrylsulfonic acid solution (1 M, FLU KA, Cat. 92822, lot CDBB6609V) to 22.271 ml de-ionized water (dH20) and 25 ml 100% ethanol (200 proof, Sigma, Cat. E7023, lot SHBH3633V).
The rats were weighed (RESULTS), anesthetized (SOP1810) and Groups 1-4 were intra-rectally instilled with 4 ml/kg TNBS solution (64 mg/kg), the anus was pinched closed and the rat held inverted for one minute.
400 mg (-)riboflavin was dissolved in 40 ml DMSO (Sigma, Cat. D5879, lot 16K0127) by sonication in a 40° C. water bath for 20 minutes in an amber glass bottle, followed by storage at room temperature overnight to prepare a 10 mg/ml yellow solution.
135 mg NaOH (Fisher Scientific, Cat. S320, lot 066620) was dissolved in 100 ml dH2O to prepare a 1.35 mg/ml solution. 128.46 mg prednisolone 21-hemisuccinate sodium salt (Sigma, Cat. P4153, lot BCBB6136V, salt factor 1.339) was dissolved in 9.59 ml (-)riboflavin/DMSO followed by addition of 9.59 ml PEG400 (Sigma, Cat. 91893, lot BCBB7720). 28.781 aqueous NaOH was added with sonication to prepare a 2 mg/ml solution for Group 4. 44 mg WB301 was vortexed in 2.19 ml (-)riboflavin/DMSO to yield an orange solution followed by addition of 2.19 ml PEG400. 6.621 ml aqueous NaOH was added with sonication to prepare a 4 mg/ml solution for Group 1. 132 mg WB301 was vortexed in 2.19 ml (-)riboflavin/DMSO to yield an orange solution followed by addition of 2.19 ml PEG400. 6.621 ml aqueous NaOH was added with sonication to prepare a 12 mg/ml solution for Group 2. 6.6 mg apremilast was vortexed in 2.2 ml (-)riboflavin/DMSO to yield an orange solution followed by addition of 6.6 ml PEG400. 2.2 ml dH2O was added to prepare a 0.6 mg/ml solution for Group 3.
The rats were weighed (RESULTS) and daily oral (PO, SOP 1651) dosing at 5 ml/kg was initiated as in TABLE 1.
The rats were weighed (RESULTS) and the animals were dosed as described above daily. WB301 and apremilast solutions were prepared fresh daily as described above.
The rats were weighed (RESULTS) anesthetized, a midline incision was made in the abdomen and the colon was evaluated for adhesions and stricture (RESULTS). The colon was removed and the length recorded (RESULTS). A midline incision was made the entire length of the colon, the contents removed and the colon weight and colon wall thickness recorded (RESULTS). A section of the colon was preserved in 20 volumes of 10% neutral buffered formalin (Richard-Allan Scientific, Cat. 5701, lot 378532, exp07/2020). The carcasses were disposed of.
3) involving several bowel loops=2
4) severe, proximal dilatation=3
2) linear ulceration <1 cm=1
3) two linear ulcers <1 cm=2
4) more sites of ulceration or one large ulcer=3

[1] = Group 1, 20 mg/kg once daily oral, starting 24 hours after TNBS
[2] = Group 2, 60 mg/kg once daily oral
[3] = Group 2, 60 mg/kg PO daily, study day 0, day of TNBS, before dosing
[4] = Group 2, 60 mg/kg PO daily, study day 1, before first dose
[5] = Group 2, 60 mg/kg PO daily, study day 2
[6] = Group 2, 60 mg/kg PO daily, study day 3
[7] = Group 2, 60 mg/kg PO daily, study day 4
[8] = Group 2, 60 mg/kg PO daily, study day 5
[9] = Group 2, 60 mg/kg PO daily, study day 6
[10] = Group 2, 60 mg/kg PO daily, study day 7
[11] = Group 2, 60 mg/kg PO daily, study day −3, before TNBS and dosing

CCOc1cc([C@@H](CS(C)(=O)=O)N2C(=O)c3cccc(/N=N/c4ccc(O)c(C(=O)O)c4)c3C2=O)ccc1OC [WB301]
effect on TNBS-induced damage across doses (20 and 60 mg/kg once daily oral, starting 24 hours after TNBS): dose-dependent reduction in the TNBS-induced damage
amelioratory effect on TNBS-induced damage [1]: no apparent amelioratory effect was observed
weight loss [1]: 15%
macroscopic disease scores [2]: improvement of the macroscopic disease scores
study day on which rats began to recover from TNBS-induced weight loss [2]: 6 days
reduction in overall colonic score (Group 2, 60 mg/kg once daily oral, assuming a colonic score of 10 for vehicle-treated rats): 25%
stool observation in cages/bedding (Group 2, 60 mg/kg once daily oral, starting DAY 4, indicative of partial colon function): Diarrhea was observed in the bedding
Average # Ulcers (Group 1, 20 mg/kg PO daily): 1
Average Colon Length (Group 1, 20 mg/kg PO daily): 11.4 cm
Average Colon Weight (Group 1, 20 mg/kg PO daily): 6.652 g
Average Colonic Score (Group 1, 20 mg/kg PO daily): 9.1
Average Ratio (colon length/colon weight) (Group 1, 20 mg/kg PO daily): 1.915 cm/g
Average Ulcer Length (Group 1, 20 mg/kg PO daily): 6.3 cm
Average Wall Thickness (Group 1, 20 mg/kg PO daily): 3.4 mm
Average Adhesions (Group 1, 20 mg/kg PO daily): 1.5
Average Colon Wall Thickness, score (Group 1, 20 mg/kg PO daily): 1.8
Average Strictures (Group 1, 20 mg/kg PO daily): 2.9
Average Ulcers, score (Group 1, 20 mg/kg PO daily): 3.0
Average Rat Weight (Group 1, 20 mg/kg PO daily, study day 0, day of TNBS, before dosing): 219 g
Average Rat Weight (Group 1, 20 mg/kg PO daily, study day 1, before first dose): 213 g
Average Rat Weight (Group 1, 20 mg/kg PO daily, study day 2): 203 g
Average Rat Weight (Group 1, 20 mg/kg PO daily, study day 3): 197 g
Average Rat Weight (Group 1, 20 mg/kg PO daily, study day 4): 195 g
Average Rat Weight (Group 1, 20 mg/kg PO daily, study day 5): 189 g
Average Rat Weight (Group 1, 20 mg/kg PO daily, study day 6): 189 g
Average Rat Weight (Group 1, 20 mg/kg PO daily, study day 7): 186 g
Average Rat Weight (Group 1, 20 mg/kg PO daily, study day −3, before TNBS and dosing): 215 g
Average # Ulcers (Group 2, 60 mg/kg PO daily): 1
Average Colon Length (Group 2, 60 mg/kg PO daily): 14.4 cm
Average Colon Weight (Group 2, 60 mg/kg PO daily): 4.604 g
Average Colonic Score (Group 2, 60 mg/kg PO daily): 7.5
Average Ratio (colon length/colon weight) (Group 2, 60 mg/kg PO daily): 3.891 cm/g
Average Ulcer Length (Group 2, 60 mg/kg PO daily): 5.6 cm
Average Wall Thickness (Group 2, 60 mg/kg PO daily): 2.6 mm
Average Adhesions (Group 2, 60 mg/kg PO daily): 1.3
Average Colon Wall Thickness, score (Group 2, 60 mg/kg PO daily): 1.1
Average Strictures (Group 2, 60 mg/kg PO daily): 2.1
Average Ulcers, score (Group 2, 60 mg/kg PO daily): 3.0
Average Rat Weight [3]: 216 g
Average Rat Weight [4]: 207 g
Average Rat Weight [5]: 200 g
Average Rat Weight [6]: 193 g
Average Rat Weight [7]: 192 g
Average Rat Weight [8]: 191 g
Average Rat Weight [9]: 195 g
Average Rat Weight [10]: 196 g
Average Rat Weight [11]: 215 g
# Ulcers (Group 1, 20 mg/kg PO daily): 1
Colon Length (Group 1, 20 mg/kg PO daily): 12.0 cm and 10.0 cm and 10.5 cm and 11.0 cm (3×) and 12.5 cm and 13.5 cm
Colon Weight (Group 1, 20 mg/kg PO daily): 9.124 g and 7.629 g and 3.180 g and 4.920 g and 9.000 g and 8.300 g and 6.200 g and 4.862 g
Ratio (colon length/colon weight) (Group 1, 20 mg/kg PO daily): 1.315 cm/g and 1.311 cm/g and 3.302 cm/g and 2.236 cm/g and 1.389 cm/g and 1.325 cm/g and 2.177 cm/g and 2.262 cm/g
Ulcer Length (Group 1, 20 mg/kg PO daily): 6.0 cm (3×) and 6.3 cm and 7.0 cm and 5.5 cm and 6.8 cm and 6.5 cm
Wall Thickness (Group 1, 20 mg/kg PO daily): 3.5 mm and 3.2 mm and 4.0 mm (2×) and 3.7 mm (2×) and 2.5 mm (2×)
Colon Wall Thickness, score (Group 1, 20 mg/kg PO daily): 2 (6×) and 1 (2×)
Ulcers, score (Group 1, 20 mg/kg PO daily): 3
Strictures (Group 1, 20 mg/kg PO daily): 3 (7×) and 2
Adhesions (Group 1, 20 mg/kg PO daily): 1 (4×) and 2 (4×)
Colonic Score (Group 1, 20 mg/kg PO daily): 9 (2×) and 10 (4×) and 8 and 7
# Ulcers (Group 2, 60 mg/kg PO daily): 1
Colon Length (Group 2, 60 mg/kg PO daily): 15.0 cm (5×) and 14.5 cm and 14.0 cm and 11.5 cm
Colon Weight (Group 2, 60 mg/kg PO daily): 2.551 g and 1.969 g and 6.164 g and 5.418 g and 9.037 g and 4.831 g and 4.140 g and 2.719 g
Ratio (colon length/colon weight) (Group 2, 60 mg/kg PO daily): 5.880 cm/g and 7.618 cm/g and 2.352 cm/g and 2.769 cm/g and 1.549 cm/g and 3.105 cm/g and 3.623 cm/g and 4.229 cm/g
Ulcer Length (Group 2, 60 mg/kg PO daily): 3.5 cm and 4.0 cm and 6.0 cm (2×) and 6.5 cm (2×) and 6.7 cm and 5.5 cm
Wall Thickness (Group 2, 60 mg/kg PO daily): 2.0 mm (4×) and 3.0 mm (2×) and 4.0 mm and 2.5 mm
Colon Wall Thickness, score (Group 2, 60 mg/kg PO daily): 1 (7×) and 2
Ulcers, score (Group 2, 60 mg/kg PO daily): 3
Strictures (Group 2, 60 mg/kg PO daily): 1 (2×) and 0 and 3 (5×)
Adhesions (Group 2, 60 mg/kg PO daily): 0 (2×) and 2 (4×) and 1 (2×)
Colonic Score (Group 2, 60 mg/kg PO daily): 5 and 4 and 9 (3×) and 8 and 10 and 6
Rat Weight [3]: 217 g and 215 g and 214 g and 222 g and 208 g and 211 g and 220 g (2×)
Rat Weight [4]: 206 g and 202 g and 213 g (2×) and 207 g and 203 g (2×) and 212 g
Rat Weight [5]: 205 g and 199 g and 204 g and 200 g (2×) and 195 g and 206 g and 193 g
Rat Weight [6]: 199 g and 200 g (2×) and 197 g and 196 g and 184 g (2×) and 183 g
Rat Weight [7]: 192 g and 212 g and 200 g (2×) and 193 g and 179 g and 183 g and 176 g
Rat Weight [8]: 196 g and 226 g and 191 g and 192 g and 182 g and 174 g and 199 g and 171 g
Rat Weight [9]: 207 g and 233 g and 193 g and 197 g and 184 g and 172 g and 199 g and 171 g
Rat Weight [10]: 220 g and 244 g and 187 g and 189 g and 178 g and 169 g and 196 g and 181 g
Rat Weight [11]: 214 g and 212 g and 215 g and 219 g and 208 g and 210 g and 220 g (2×)
